What was measured:
[1] = tested on: Nonconditioned Passive Avoidance in Rats; test: Nonconditioned passive avoidance (conflict) test in rats; type: in vivo, rat (Wistar); design: key: Active: considered active if the number of shocks received by the test group is significantly higher than the control group by the Mann-Witney U test; details: oral or i.p.
Protocol: Another test which has been used to assess anti-anxiety effects is a nonconditioned passive avoidance procedure described by [J. R. Vogel, B. Beer and D. E. Clody, "A Simple and Reliable Conflict Procedure for Testing Anti-Anxiety Agents", Psychopharmacologia, 21, 1-7 (1971)]. A conflict situation is induced in rats by a modification of this method.
Groups of 6 naive, Wistar strain rats, weighing 200-240 g each were deprived of water for 48 hours and food for 24 hours. The test compounds were administered in single or graded, oral or intraperitoneal doses, suspended in a 2% starch vehicle containing 0.5% v/v polyethylene glycol and one drop of polysorbate 80. Control animals received the vehicle alone. At 30 to 60 minutes each rat was placed in an individual plexiglass chamber. Water was available ad libitum from a tap located in the rear of the chamber. A 0.7 milliampere DC shocking current was established between the stainless steel grid floor and the tap. After 20 licks of non-shocked drinking, a shock was delivered for 2 seconds and then further shocks were delivered on a ratio of one shock for 2 seconds for every 20 licks. This was continued for a total of 3 minutes. The number of shocks taken by each rat during the 3 minute interval was recorded and compared to a control group. […]

[2] = tested on: Clonic Seizures Caused by Pentylenetetrazole in Rats; test: Protection against clonic seizures caused by pentylenetetrazole in rats; type: in vivo; details: Rattus norvegicus, oral or i.p., read-out: % of Rats Protected; for responders at 25 mg/kg: pentylenetetrazole 23 mg/kg i.v. at 30 or 60 min
In short: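 Rats (at least 4 per group) given single or graded oral or intraperitoneal doses in starch/PEG/Polysorbate 80 vehicle. After 30 or 60 min, pentylenetetrazole 23 mg/kg i.v. was given, a dose expected to induce clonic seizures in 99% of unprotected rats. Protection from convulsions was scored.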

[3] = tested on: Brain-Specific Receptors of Rats; test: Inhibition of the binding of 3H-benzodiazepine to brain-specific receptors of rats; design: species or system rat (Wistar); details: 3H-diazepam 1.5 nM or 3H-flunitrazepam 1.0 nM; rat cortex P2 fraction; test concentration not given
[4] = pentylenetetrazole 23 mg/kg i.v.

Compound	Result (nonconditioned passive avoidance) ([1]; dose 25.0 mg/kg)	responders at 25 mg/kg [2] [%]	further results
O=C(c1ccc2c(c1)OCO2)c1cnn2c(-c3cccnc3)ccnc12 [1,3-benzodioxol-5-yl[7-(3-pyridinyl)pyrazolo[1,5-a]pyrimidin-3-yl]methanone]	Active	50	–
O=C(c1ccccn1)c1cnn2c(-c3cccnc3)ccnc12 [2-Pyridinyl[7-(3-pyridinyl)pyrazolo[1,5-a]pyrimidin-3-yl]methanone]	Active	75	% Inhibition [3]: 98%
O=C(c1ccco1)c1cnn2c(-c3ccncc3)ccnc12 [2-furanyl[7-(4-pyridinyl)pyrazolo[1,5-a]pyrimidin-3-yl]methanone]	Active	25	% Inhibition [3]: 19%
O=C(c1cccs1)c1cnn2c(-c3cccc(C(F)(F)F)c3)ccnc12 [2-thienyl[7-[3-(trifluoromethyl)phenyl]pyrazolo[1,5-a]pyrimidin-3-yl]methanone]	Active	100	% Inhibition [3]: 99%
O=C(c1ccoc1)c1cnn2c(-c3cccnc3)ccnc12 [3-furanyl[7-(3-pyridinyl)pyrazolo[1,5-a]pyrimidin-3-yl]methanone]	Active	100	% Inhibition [3]: 77%
O=C(c1ccncc1)c1cnn2c(-c3cccnc3)ccnc12 [4-pyridinyl[7-(3-pyridinyl)pyrazolo[1,5-a]pyrimidin-3-yl]methanone]	Active	100	–
O=C(c1ccncc1)c1cnn2c(-c3ccncc3)ccnc12 [4-pyridinyl[7-(4-pyridinyl)pyrazolo[1,5-a]pyrimidin-3-yl]methanone]	Active	–	% Inhibition [3]: 11%
O=C(c1ccncc1)c1cnn2c(-c3cccc(C(F)(F)F)c3)ccnc12 [4-pyridinyl[7-[3-(trifluoromethyl)phenyl]pyrazolo[1,5-a]pyrimidin-3-yl]methanone]	Active	100	–
O=C(c1ccccc1F)c1cnn2c(-c3cccnc3)ccnc12 [(2-fluorophenyl)[7-(3-pyridinyl)pyrazolo[1,5-a]pyrimidin-3-yl]methanone]	Active	100	–
O=C(c1ccccc1F)c1cnn2c(-c3ccncc3)ccnc12 [(2-fluorophenyl)[7-(4-pyridinyl)pyrazolo[1,5-a]pyrimidin-3-yl]methanone]	Active	50	–
O=C(c1ccccc1F)c1cnn2c(-c3cccc(C(F)(F)F)c3)ccnc12 [(2-fluorophenyl)[7-[3-(trifluoromethyl)phenyl]pyrazolo[1,5-a]pyrimidin-3-yl]methanone]	Active	50	–
O=C(c1cccc(F)c1)c1cnn2c(-c3ccncc3)ccnc12 [(3-fluorophenyl)[7-(4-pyridinyl)pyrazolo[1,5-a]pyrimidin-3-yl]methanone]	Active	100	–
COc1cccc(C(=O)c2cnn3c(-c4cccnc4)ccnc23)c1 [(3-methoxyphenyl)[7-(3-pyridinyl)pyrazolo[1,5-a]pyrimidin-3-yl]methanone]	Active	75	–
O=C(c1ccc(Cl)cc1)c1cnn2c(-c3cccc(C(F)(F)F)c3)ccnc12 [(4-chlorophenyl)[7-[3-(trifluoromethyl)phenyl]pyrazolo[1,5-a]pyrimidin-3-yl]methanone]	Active	–	% Inhibition [3]: 81%
CCc1ccc(C(=O)c2cnn3c(-c4cccnc4)ccnc23)cc1 [(4-ethylphenyl)[7-(3-pyridinyl)pyrazolo[1,5-a]pyrimidin-3-yl]methanone]	Active	100	–
O=C(c1ccc(F)cc1)c1cnn2c(-c3cccnc3)ccnc12 [(4-fluorophenyl)[7-(3-pyridinyl)pyrazolo[1,5-a]pyrimidin-3-yl]methanone]	Active	63	–

Compound	Result (nonconditioned passive avoidance) ([1]; dose 25.0 mg/kg)	responders at 25 mg/kg [2] [%]	further results
Cc1ccc(C(=O)c2cnn3c(-c4cccc(C(F)(F)F)c4)ccnc23)cc1 [(4-methylphenyl)[7-[3-(trifluoromethyl)phenyl]pyrazolo[1,5-a]pyrimidin-3-yl]methanone]	–	50	Result (nonconditioned passive avoidance) ([1]; dose 12.5 mg/kg): Active
CC(=O)N(C)c1ccc(-c2ccnc3c(C(=O)c4ccccc4)cnn23)cc1 [N--[4-(3-benzoylpyrazolo[1,5-a]pyrimidin-7-yl)phenyl]-N--methylacetamide]	Active	–	–
CCN(C(C)=O)c1cccc(-c2ccnc3c(C(=O)c4ccco4)cnn23)c1 [N--ethyl-N--[3-[3-(2-furanylcarbonyl)pyrazolo[1,5-a]pyrimidin-7-yl]phenyl]acetamide]	–	–	Result (nonconditioned passive avoidance) ([1]; dose 12.5 mg/kg): Active; responders at 12.5 mg/kg [2, 4]: 100%
CCC(=O)N(CC)c1cccc(-c2ccnc3c(C(=O)c4ccco4)cnn23)c1 [N-Ethyl-N-[3-[3-(2-furanylcarbonyl)pyrazolo[1,5-a]pyrimidin-7-yl]phenyl]propanamide]	–	–	Result (nonconditioned passive avoidance) ([1]; dose 12.5 mg/kg): Active
CCN(C(C)=O)c1cccc(-c2ccnc3c(C(=O)c4ccccc4)cnn23)c1 [N-[3-(3-Benzoylpyrazolo[1,5-a]pyrimidin-7-yl)phenyl]-N-ethylacetamide]	Active	–	responders at 6.2 mg/kg ([2]; dose 6.2 mg/kg, pentylenetetrazole 23 mg/kg i.v.): 100%
CC(=O)N(C)c1cccc(-c2ccnc3c(C(=O)c4ccccc4)cnn23)c1 [N-[3-(3-Benzoylpyrazolo[1,5-a]pyrimidin-7-yl)phenyl]-N-methylacetamide]	–	–	Result (nonconditioned passive avoidance) ([1]; dose 3.1 mg/kg): Active; responders at 0.8 mg/kg [2, 4]: 75%
CCC(=O)N(C)c1cccc(-c2ccnc3c(C(=O)c4ccccc4)cnn23)c1 [N-[3-(3-Benzoylpyrazolo[1,5-a]pyrimidin-7-yl)phenyl]-N-methylpropanamide]	–	–	Result (nonconditioned passive avoidance) ([1]; dose 1.5 mg/kg): Active; responders at 0.8 mg/kg [2, 4]: 100%
CCC(=O)N(CC)c1cccc(-c2ccnc3c(C(=O)c4ccccc4)cnn23)c1 [N-[3-(3-Benzoylpyrazolo[1,5-a]pyrimidin-7-yl)phenyl]N-ethylpropanamide]	–	–	Result (nonconditioned passive avoidance) ([1]; dose 12.5 mg/kg): Active; responders at 12.5 mg/kg [2, 4]: 100%
CC(=O)N(C)c1cccc(-c2ccnc3c(C(=O)c4ccco4)cnn23)c1 [N-[3-[3-(2-Furancarbonyl)pyrazolo[1,5-a]pyrimidin-7-yl]phenyl]-N-methylacetamide]	Active	100	–
CCC(=O)N(C)c1cccc(-c2ccnc3c(C(=O)c4ccco4)cnn23)c1 [N-[3-[3-(2-Furanylcarbonyl)pyrazolo[1,5-a]pyrimidin-7-yl]phenyl]-N-methylpropanamide]	Active	–	responders at 6 mg/kg ([2]; dose 6.0 mg/kg, pentylenetetrazole 23 mg/kg i.v.): 100%
CN(C)c1ccc(C(=O)c2cnn3c(-c4cccnc4)ccnc23)cc1 [[4-(dimethylamino)phenyl][7-(3-pyridinyl)pyrazolo[1,5-a]pyrimidin-3-yl]methanone]	Active	100	–
CN(C)c1ccc(C(=O)c2cnn3c(-c4cccc(C(F)(F)F)c4)ccnc23)cc1 [[4-(dimethylamino)phenyl][7-[3-(trifluoromethyl)phenyl]pyrazolo[1,5-a]pyrimidin-3-yl]methanone]	Active	100	–
O=C(c1ccsc1)c1cnn2c(-c3cccnc3)ccnc12 [[7-(3-pyridinyl)pyrazolo[1,5-a]pyrimidin-3-yl]-3-thienylmethanone]	Active	50	–
O=C(c1cccc(C(F)(F)F)c1)c1cnn2c(-c3cccnc3)ccnc12 [[7-(3-pyridinyl)pyrazolo[1,5-a]pyrimidin-3-yl][3-(trifluoromethyl)phenyl]methanone]	Active	–	% Inhibition [3]: 38%
CCNc1cccc(-c2ccnc3c(C(=O)c4ccco4)cnn23)c1 [[7-[3-(Ethylamino)phenyl]pyrazolo[1,5-a]pyrimidin-3-yl]-2-furanylmethanone]	Active	100	–
CCNc1cccc(-c2ccnc3c(C(=O)c4ccccc4)cnn23)c1 [[7-[3-(Ethylamino)phenyl]pyrazolo[1,5-a]pyrimidin-3-yl]phenylmethanone]	Active	100	–

— patent US4521422A, “Aryl and heteroaryl[7-(aryl and heteroaryl)pyrazolo[1,5-a]pyrimidin-3-yl]methanones” (American Cyanamid Company, priority 1984, dated 1985)
